# Molecular target: Tetracycline efflux protein TetA(B) (Escherichia coli)
# Experiment: Inhibition of [3H]tetracycline uptake into everted membrane vesicles, prepared from tetracycline resistant Escherichia coli D1-209
row,Compound,IC50 [nM]
1,"CN(C)[C@@H]1C(=O)C(C(N)=O)C(=O)[C@@]2(O)C(=O)C3C(=O)c4c(O)cccc4[C@H](CSCCC(=O)O)C3[C@H](O)C12 (stereo not given in full) [3-(9-Carbamoyl-7-dimethylamino-1,6,8,10a,11-pentahydroxy-10,12-dioxo-5,5a,6,6a,7,10,10a,12-octahydro-naphthacen-5-ylmethylsulfanyl)-propionic acid]",43200
2,"CN(C)[C@@H]1C(=O)C(C(N)=O)C(=O)[C@@]2(O)C(=O)C3C(=O)c4c(O)cccc4[C@H](CS(=O)(=O)Cc4ccccc4)C3[C@H](O)C12 (stereo not given in full) [4-Dimethylamino-3,5,10,12,12a-pentahydroxy-1,11-dioxo-6-phenylmethanesulfonylmethyl-1,4,4a,5,5a,6,11,12a-octahydro-naphthacene-2-carboxylic acid amide]",1500
3,"CN(C)[C@@H]1C(=O)C(C(N)=O)C(=O)[C@@]2(O)C(=O)C3C(=O)c4c(O)cccc4[C@H](CSc4ccccc4)C3[C@H](O)C12 (stereo not given in full) [4-Dimethylamino-3,5,10,12,12a-pentahydroxy-1,11-dioxo-6-phenylsulfanylmethyl-1,4,4a,5,5a,6,11,12a-octahydro-naphthacene-2-carboxylic acid amide]",6900
4,"COc1ccc(SC[C@H]2c3cccc(O)c3C(=O)C3C(=O)[C@]4(O)C(=O)C(C(N)=O)C(=O)[C@@H](N(C)C)C4[C@@H](O)C32)cc1 (stereo not given in full) [4-Dimethylamino-3,5,10,12,12a-pentahydroxy-6-(4-methoxy-phenylsulfanylmethyl)-1,11-dioxo-1,4,4a,5,5a,6,11,12a-octahydro-naphthacene-2-carboxylic acid amide]",1200
5,"CSC[C@H]1c2cccc(O)c2C(=O)C2C(=O)[C@]3(O)C(=O)C(C(N)=O)C(=O)[C@@H](N(C)C)C3[C@@H](O)C21 (stereo not given in full) [4-Dimethylamino-3,5,10,12,12a-pentahydroxy-6-methylsulfanylmethyl-1,11-dioxo-1,4,4a,5,5a,6,11,12a-octahydro-naphthacene-2-carboxylic acid amide]",7900
6,"CN(C)[C@@H]1C(=O)C(C(N)=O)C(=O)[C@@]2(O)C(=O)C3C(=O)c4c(O)cccc4[C@H](CSCc4ccc(Cl)cc4)C3[C@H](O)C12 (stereo not given in full) [6-(4-Chloro-benzylsulfanylmethyl)-4-dimethylamino-3,5,10,12,12a-pentahydroxy-1,11-dioxo-1,4,4a,5,5a,6,11,12a-octahydro-naphthacene-2-carboxylic acid amide]",2100
7,"CN(C)[C@@H]1C(=O)C(C(N)=O)C(=O)[C@@]2(O)C(=O)C3C(=O)c4c(O)cccc4[C@H](CSc4ccc(Cl)cc4)C3[C@H](O)C12 (stereo not given in full) [6-(4-Chloro-phenylsulfanylmethyl)-4-dimethylamino-3,5,10,12,12a-pentahydroxy-1,11-dioxo-1,4,4a,5,5a,6,11,12a-octahydro-naphthacene-2-carboxylic acid amide]",1600

# The remaining lines, values ahead:
row,IC50 [nM],Compound
1,800,"CCCCSC[C@H]1c2cccc(O)c2C(=O)C2C(=O)[C@]3(O)C(=O)C(C(N)=O)C(=O)[C@@H](N(C)C)C3[C@@H](O)C21 (stereo not given in full) [6-Butylsulfanylmethyl-4-dimethylamino-3,5,10,12,12a-pentahydroxy-1,11-dioxo-1,4,4a,5,5a,6,11,12a-octahydro-naphthacene-2-carboxylic acid amide]"
2,1000,"CN(C)[C@@H]1C(=O)C(C(=O)NCN2CCOCC2)C(=O)[C@@]2(O)C(=O)C3C(=O)c4c(O)cccc4[C@H](CSC4CCCC4)C3[C@H](O)C12 (stereo not given in full) [6-Cyclopentylsulfanylmethyl-4-dimethylamino-3,5,10,12,12a-pentahydroxy-1,11-dioxo-1,4,4a,5,5a,6,11,12a-octahydro-naphthacene-2-carboxylic acid (morpholin-4-ylmethyl)-amide]"
3,500,"CN(C)[C@@H]1C(=O)C(C(N)=O)C(=O)[C@@]2(O)C(=O)C3C(=O)c4c(O)cccc4[C@H](CSC(C)(C)C)C3[C@H](O)C12 (stereo not given in full) [6-tert-Butylsulfanylmethyl-4-dimethylamino-3,5,10,12,12a-pentahydroxy-1,11-dioxo-1,4,4a,5,5a,6,11,12a-octahydro-naphthacene-2-carboxylic acid amide]"

# Source: BindingDB's records for doi:10.1021/jm00055a008 (Tufts University, 1993)
